Experimental data from ChEMBL document CHEMBL6127042, “Design, synthesis and antimycobacterial activity of novel benzothiazinones with improved water solubility” (Eur J Med Chem, 2024).
≈ marks a conversion by molar mass, not a printed value.

Key:
[1] = Cytotoxicity against African green monkey Vero cells assessed as reduction in cell viability incubated for 72 hrs by MTT assay; assay type: toxicity, cell-based; details: chlorocebus sabaeus
[2] = tested on: Mycobacterium tuberculosis; test: Antitubercular activity against Mycobacterium tuberculosis H37Rv ATCC 27294 assessed as bacterial growth inhibition incubated for 7 days in 7H9 medium by alamar blue staining based microplate fluorometric analysis; assay type: functional; details: H37Rv ATCC 27294, 168 h, time 7 day
[3] = Water solubility of the compound in 80% acetronitrile/20% water meausred after 24 hrs by HPLC-UV analysis; assay type: physicochemical; details: 80% acetonitrile/20% water
[4] = AUC (0 to infinity) in female ICR mouse at 25 mg/kg, po administered as single dose measured upto 24 hrs by HPLC analysis; assay type: ADME, organism-based; details: in vivo
[5] = Half life in female ICR mouse at 25 mg/kg, po administered as single dose measured upto 24 hrs by HPLC analysis; assay type: ADME, organism-based; details: in vivo
[6] = Tmax in female ICR mouse at 25 mg/kg, po administered as single dose measured upto 24 hrs by HPLC analysis; assay type: ADME, organism-based; details: in vivo
[7] = Cmax in female ICR mouse at 25 mg/kg, po administered as single dose measured upto 24 hrs by HPLC analysis; assay type: ADME, organism-based; details: in vivo
[8] = Acute toxicity in female ICR mouse assessed as change in body weight at 1000 mg/kg, po administered as single dose measured for 7 days; assay type: organism-based; details: in vivo, 168 h, time 7 day
hERG (KCNH2) = hERG (KCNH2) (Homo sapiens, UniProt Q12809); test: Inhibition of human ERG expressed in HEK293 cells at 10 uM by electrophysiological method relative to control; assay type: toxicity, cell-based; details: HEK293 cells expressing hERG
Sequence of hERG (KCNH2) (Q12809 whole entry): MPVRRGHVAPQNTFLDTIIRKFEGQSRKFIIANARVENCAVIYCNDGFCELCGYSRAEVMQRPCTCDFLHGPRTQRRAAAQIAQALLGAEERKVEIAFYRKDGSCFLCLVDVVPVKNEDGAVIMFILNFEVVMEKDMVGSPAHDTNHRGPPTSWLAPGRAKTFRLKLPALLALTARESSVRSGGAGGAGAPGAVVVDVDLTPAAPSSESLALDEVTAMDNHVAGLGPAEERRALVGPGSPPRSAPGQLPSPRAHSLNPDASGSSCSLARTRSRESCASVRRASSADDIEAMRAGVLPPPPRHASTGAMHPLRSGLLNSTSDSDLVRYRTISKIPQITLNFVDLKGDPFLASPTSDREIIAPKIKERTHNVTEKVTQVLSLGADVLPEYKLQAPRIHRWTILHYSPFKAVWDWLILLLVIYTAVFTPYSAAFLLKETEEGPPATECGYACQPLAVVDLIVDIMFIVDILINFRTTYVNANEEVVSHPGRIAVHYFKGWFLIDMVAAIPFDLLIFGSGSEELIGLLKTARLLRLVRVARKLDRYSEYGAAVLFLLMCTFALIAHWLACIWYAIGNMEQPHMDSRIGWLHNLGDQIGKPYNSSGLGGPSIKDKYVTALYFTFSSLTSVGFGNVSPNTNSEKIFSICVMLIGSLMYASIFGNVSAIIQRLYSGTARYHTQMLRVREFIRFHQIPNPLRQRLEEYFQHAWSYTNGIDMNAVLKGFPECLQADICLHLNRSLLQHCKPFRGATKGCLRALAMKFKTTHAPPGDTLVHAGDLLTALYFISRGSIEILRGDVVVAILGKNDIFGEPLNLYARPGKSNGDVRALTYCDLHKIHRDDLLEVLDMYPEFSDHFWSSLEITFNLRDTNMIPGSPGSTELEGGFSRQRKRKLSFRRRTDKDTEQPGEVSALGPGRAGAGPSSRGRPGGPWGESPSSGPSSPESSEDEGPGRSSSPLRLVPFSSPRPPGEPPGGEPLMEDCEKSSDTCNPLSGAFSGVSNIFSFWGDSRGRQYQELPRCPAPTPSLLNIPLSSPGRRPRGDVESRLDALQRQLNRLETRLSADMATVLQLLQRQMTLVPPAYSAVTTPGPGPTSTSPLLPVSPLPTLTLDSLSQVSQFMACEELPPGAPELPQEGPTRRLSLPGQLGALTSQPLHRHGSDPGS

[9] = Acute toxicity in female ICR mouse assessed as animal death at 1000 mg/kg, po administered as single dose measured for 7 days; assay type: organism-based; details: in vivo, 168 h, time 7 day
[10] = Acute toxicity in female ICR mouse assessed as lethal dose administered as single oral dose measured for 7 days; details: in vivo, time 7 day
[11] = Water solubility of the compound in 60% acetronitrile/40% water meausred after 24 hrs by HPLC-UV analysis; assay type: physicochemical; details: 60% acetonitrile/40% water

Row | SMILES | CC50 at 72 h [1] [µM] | MIC [2] [µM] | solubility at 24 h [3] [µg/mL] | further results
1 | O=C(O)CCON=C1CCC(CN2CCN(c3nc(=O)c4cc(C(F)(F)F)cc([N+](=O)[O-])c4s3)CC2)CC1 (configuration not stated) | > 115 | 0.214 (≈ 0.119 µg/mL) | – | –
2 | COC(=O)CNC1CCC(CN2CCN(c3nc(=O)c4cc(C(F)(F)F)cc([N+](=O)[O-])c4s3)CC2)CC1 (configuration not stated) | – | 1.05 (≈ 0.573 µg/mL) | – | –
3 | O=C(O)CNC1CCC(CN2CCN(c3nc(=O)c4cc(C(F)(F)F)cc([N+](=O)[O-])c4s3)CC2)CC1 (configuration not stated) | > 121 | > 18.9 | – | –
4 | C[C@H](NC(=O)CON=C1CCC(CN2CCN(c3nc(=O)c4cc(C(F)(F)F)cc([N+](=O)[O-])c4s3)CC2)CC1)C(=O)OC(C)(C)C (some centres not stated) | > 95 | 0.181 (≈ 0.121 µg/mL) | – | –
5 | CC(C)(C)OC(=O)CNC(=O)C(C)(C)ON=C1CCC(CN2CCN(c3nc(=O)c4cc(C(F)(F)F)cc([N+](=O)[O-])c4s3)CC2)CC1 (configuration not stated) | > 94 | 0.086 (≈ 0.0589 µg/mL) | 4 (≈ 5.84 µM) | –
6 | O=C(O)CNC(=O)CCON=C1CCC(CN2CCN(c3nc(=O)c4cc(C(F)(F)F)cc([N+](=O)[O-])c4s3)CC2)CC1 (configuration not stated) | > 104 | 0.338 (≈ 0.208 µg/mL) | – | –
7 | C[C@H](NC(=O)C(C)(C)ON=C1CCC(CN2CCN(c3nc(=O)c4cc(C(F)(F)F)cc([N+](=O)[O-])c4s3)CC2)CC1)C(=O)O (some centres not stated) | – | 1.33 (≈ 0.853 µg/mL) | – | –
8 | CC(C)(C)OC(=O)NCCON=C1CCC(CN2CCN(c3nc(=O)c4cc(C(F)(F)F)cc([N+](=O)[O-])c4s3)CC2)CC1 (configuration not stated) | > 102 | 0.033 (≈ 0.0207 µg/mL) | 2.4 (≈ 3.82 µM) | –
9 | C[C@H](NC(=O)CON=C1CCC(CN2CCN(c3nc(=O)c4cc(C(F)(F)F)cc([N+](=O)[O-])c4s3)CC2)CC1)C(=O)O (some centres not stated) | – | 2.9 (≈ 1.79 µg/mL) | – | –
10 | C[C@H](NC(=O)C(C)(C)ON=C1CCC(CN2CCN(c3nc(=O)c4cc(C(F)(F)F)cc([N+](=O)[O-])c4s3)CC2)CC1)C(=O)OC(C)(C)C (some centres not stated) | > 92 | < 0.023 | – | –
11 | CON=C1CCC(CN2CCN(c3nc(=O)c4cc(C(F)(F)F)cc([N+](=O)[O-])c4s3)CC2)CC1 (configuration not stated) | – | < 0.035 | 1.6 (≈ 3.2 µM) | AUC(0-inf) [4]: 16900 ng·h/mL; half-life [5]: 5.24 h; Tmax [6]: 0.69 h; Cmax [7]: 8370 ng/mL
12 | CC(C)(C)OC(=O)CNC(=O)CON=C1CCC(CN2CCN(c3nc(=O)c4cc(C(F)(F)F)cc([N+](=O)[O-])c4s3)CC2)CC1 (configuration not stated) | > 98 | 0.044 (≈ 0.0289 µg/mL) | – | –
13 | CC(C)(C)OC(=O)CCON=C1CCC(CN2CCN(c3nc(=O)c4cc(C(F)(F)F)cc([N+](=O)[O-])c4s3)CC2)CC1 (configuration not stated) | > 104 | < 0.026 | – | –
14 | CC(C)(ON=C1CCC(CN2CCN(c3nc(=O)c4cc(C(F)(F)F)cc([N+](=O)[O-])c4s3)CC2)CC1)C(=O)O (configuration not stated) | > 112 | 0.114 (≈ 0.0652 µg/mL) | 490 (≈ 857 µM) | –
15 | NNC(=O)c1ccncc1 [ISONIAZID] | – | 0.342 (≈ 0.0469 µg/mL) | – | –
16 | NCCON=C1CCC(CN2CCN(c3nc(=O)c4cc(C(F)(F)F)cc([N+](=O)[O-])c4s3)CC2)CC1 (configuration not stated) | – | 0.091 (≈ 0.0481 µg/mL) | – | Activity [8]: Toxic; AUC(0-inf) [4]: 3840 ng·h/mL; half-life [5]: 3.6 h; Tmax [6]: 1 h; inhibition at 10 µM (hERG (KCNH2)): 5.66%; Activity [9]: Non-Toxic; LD50 at 168 h [10]: > 1000 mg/kg; solubility at 24 h [11]: > 2000 µg/mL; Cmax [7]: 798 ng/mL
17 | O=C(O)CON=C1CCC(CN2CCN(c3nc(=O)c4cc(C(F)(F)F)cc([N+](=O)[O-])c4s3)CC2)CC1 (configuration not stated) | > 118 | < 0.029 | 1200 (≈ 2210 µM) | Activity [8]: Toxic; AUC(0-inf) [4]: 1410 ng·h/mL; half-life [5]: 3.06 h; Tmax [6]: 0.33 h; inhibition at 10 µM (hERG (KCNH2)): 5.8%; Activity [9]: Non-Toxic; LD50 at 168 h [10]: > 1000 mg/kg; Cmax [7]: 770 ng/mL
18 | CC(C)(ON=C1CCC(CN2CCN(c3nc(=O)c4cc(C(F)(F)F)cc([N+](=O)[O-])c4s3)CC2)CC1)C(=O)NCC(=O)O (configuration not stated) | – | 0.653 (≈ 0.41 µg/mL) | 530 (≈ 843 µM) | –
19 | O=c1nc(N2CCN(CC3CCCCC3)CC2)sc2c([N+](=O)[O-])cc(C(F)(F)F)cc12 [MACOZINONE] | > 140 | < 0.035 | 1.1 (≈ 2.41 µM) | AUC(0-inf) [4]: 2310 ng·h/mL; half-life [5]: 6.43 h; Tmax [6]: 2 h; Cmax [7]: 295 ng/mL
20 | CO[C@H]1/C=C/O[C@@]2(C)Oc3c(C)c(O)c4c(O)c(c(/C=N/N5CCN(C)CC5)c(O)c4c3C2=O)NC(=O)/C(C)=C\C=C\[C@H](C)[C@H](O)[C@@H](C)[C@@H](O)[C@@H](C)[C@H](OC(C)=O)[C@@H]1C [RIFAMPIN] | – | 0.04 (≈ 0.0329 µg/mL) | – | –
21 | CC(C)(C)OC(=O)CNC(=O)CCON=C1CCC(CN2CCN(c3nc(=O)c4cc(C(F)(F)F)cc([N+](=O)[O-])c4s3)CC2)CC1 (configuration not stated) | > 95 | < 0.026 | – | –
22 | O=C(O)CNC(=O)CON=C1CCC(CN2CCN(c3nc(=O)c4cc(C(F)(F)F)cc([N+](=O)[O-])c4s3)CC2)CC1 (configuration not stated) | – | 1.54 (≈ 0.925 µg/mL) | – | –
